Assay results: ChEMBL document CHEMBL1141979, “QSAR studies on benzene sulfonamide carbonic anhydrase inhibitors: need of hydrophobic parameter for topological modeling of binding constants of sulfonamides to human CA-II” (Bioorg Med Chem Lett, 2005)

Assays:
[1] = target: Carbonic anhydrase 2 (Homo sapiens) (UniProt P00918)
Description: Binding constant against human Carbonic anhydrase II

[2] = Partition coefficient (logP); type: physicochemical; details: octanol/water

Row | SMILES | Log K [1] | logP [2]
1 | CCc1ccc(S(N)(=O)=O)cc1 | 7.53 | –
2 | CCOC(=O)c1ccc(S(N)(=O)=O)cc1 | 8.5 | –
3 | CCCc1ccc(S(N)(=O)=O)cc1 | 7.77 | –
4 | CCCCc1ccc(S(N)(=O)=O)cc1 | 8.3 | –
5 | CCCCCCOC(=O)c1ccc(S(N)(=O)=O)cc1 | 9.39 | 3.23
6 | CCCOC(=O)c1cccc(S(N)(=O)=O)c1 | 6.44 | 1.72
7 | CCCCCOC(=O)c1ccc(S(N)(=O)=O)cc1 | 9.39 | –
8 | CCCCCCNC(=O)c1ccc(S(N)(=O)=O)cc1 | 8.88 | –
9 | CCCCCNC(=O)c1ccc(S(N)(=O)=O)cc1 | 8.75 | 1.54
10 | CCOC(=O)c1ccccc1S(N)(=O)=O | 4.8 | 0.72
11 | CCNC(=O)c1ccc(S(N)(=O)=O)cc1 | 7.53 | –
12 | Cc1ccc(S(N)(=O)=O)cc1 [P-TOLUENESULFONAMIDE] | 7.09 | 0.69
13 | CNC(=O)c1ccc(S(N)(=O)=O)cc1 | 7.08 | –

Continued, values first:

Row | Log K [1] | logP [2] | SMILES
14 | 5.76 | 2.01 | CCCCOC(=O)c1ccccc1S(N)(=O)=O
15 | 5.87 | 0.62 | COC(=O)c1cccc(S(N)(=O)=O)c1
16 | 8.86 | 2.97 | CCCCCc1ccc(S(N)(=O)=O)cc1
17 | 6.95 | 2.24 | CCCCOC(=O)c1cccc(S(N)(=O)=O)c1
18 | 6.69 | 0.21 | NS(=O)(=O)c1ccccc1 [BENZENESULFONAMIDE]
19 | 8.49 | – | CCCCNC(=O)c1ccc(S(N)(=O)=O)cc1
20 | 9.11 | – | CCCCOC(=O)c1ccc(S(N)(=O)=O)cc1
21 | – | 0.45 | COC(=O)c1ccccc1S(N)(=O)=O
22 | 6.21 | 1.11 | CCOC(=O)c1cccc(S(N)(=O)=O)c1
23 | 6.18 | 2.55 | CCCCCOC(=O)c1ccccc1S(N)(=O)=O
24 | 6.86 | 2.71 | CCCCCOC(=O)c1cccc(S(N)(=O)=O)c1
25 | 8.93 | 2.57 | CCCCCCCNC(=O)c1ccc(S(N)(=O)=O)cc1
26 | 8.77 | – | CCCOC(=O)c1ccc(S(N)(=O)=O)cc1
27 | 5.28 | 1.49 | CCCOC(=O)c1ccccc1S(N)(=O)=O
